# Laboratory results reported in patent publication US6737383B1, “Herbicidal oxadiazolidines” (priority 1999, dated 2004).
# Legend:
# bedstraw = experiment: Test B pre/postemergence bedstraw; type: in vivo, Galium aparine
# Method in brief: (§1)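 Test chemicals in a non-phytotoxic solvent mixture with surfactant were sprayed preemergence onto planted seeds and postemergence onto plants 2 to 18 cm tall (1- to 4-leaf stage). After twelve to sixteen days in a greenhouse, injury was visually rated against untreated controls from 0 (no effect) to 10 (complete control).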
# blackgrass = experiment: Test B pre/postemergence blackgrass; type: in vivo, Alopecurus myosuroides
# Method in brief: as §1
# surinam grass = experiment: Test B pre/postemergence surinam grass; type: in vivo, Brachiaria decumbens
# Method in brief: as §1
# corn = experiment: Test B pre/postemergence corn; type: in vivo, Zea mays
# Method in brief: as §1
# crabgrass = experiment: Test B pre/postemergence crabgrass; type: in vivo, Digitaria sanguinalis
# Method in brief: as §1
# giant foxtail = experiment: Test B pre/postemergence giant foxtail; type: in vivo, Setaria faberii
# Method in brief: as §1
# morningglory = experiment: Test B pre/postemergence morningglory; type: in vivo, Ipomoea hederacea
# Method in brief: as §1
# pigweed = experiment: Test B pre/postemergence pigweed; type: in vivo, Amaranthus retroflexus
# Method in brief: as §1
# rape = experiment: Test B pre/postemergence rape; type: in vivo, Brassica napus
# Method in brief: as §1
# soybean = experiment: Test B pre/postemergence soybean; type: in vivo, Glycine max
# Method in brief: as §1
# velvetleaf = experiment: Test B pre/postemergence velvetleaf; type: in vivo, Abutilon theophrasti
# Method in brief: as §1
# wheat = experiment: Test B pre/postemergence wheat; type: in vivo, Triticum aestivum
# Method in brief: as §1
# wild oat = experiment: Test B pre/postemergence wild oat; type: in vivo, Avena fatua
# Method in brief: as §1
# purple nutsedge = experiment: Test B pre/postemergence purple nutsedge; type: in vivo, Cyperus rotundus
# Method in brief: as §1
# rice = experiment: Test B flood test rice; type: in vivo, Oryza sativa
# Method in brief: (§2)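 Plants were grown to the 2-leaf stage before treatment with test chemical, then held in a greenhouse for twelve to sixteen days. Injury was visually rated against untreated controls on a 0–10 scale, where 0 is no effect and 10 is complete control.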
# duck salad = experiment: Test B flood test duck salad; type: in vivo, Heteranthera limosa
# Method in brief: as §2
# [1] = Postemergence, Rate 125 g/ha, scale of 0 to 10 where 0 is no effect and 10 is complete control
# [2] = Postemergence, Rate 250 g/ha, scale of 0 to 10, 0 is no effect, 10 is complete control
# [3] = Preemergence, Rate 125 g/ha, scale of 0 to 10 where 0 is no effect and 10 is complete control
# [4] = Preemergence, Rate 250 g/ha, scale 0 to 10 (0 no effect, 10 complete control)
# [5] = Preemergence, Rate 500 g/ha, scale of 0 to 10 where 0 is no effect and 10 is complete control
# [6] = Rate 1000 g/ha, Preemergence, scale 0 to 10 (0 no effect, 10 complete control)
# [7] = Postemergence, Rate 500 g/ha, scale of 0 to 10 where 0 is no effect and 10 is complete control
# [8] = Postemergence, Rate 1000 g/ha, scale 0 to 10 (0 no effect, 10 complete control)
# [9] = Pre-emergence, Rate 1000 g/ha, scale 0 to 10 (0 no effect, 10 complete control)
# [10] = Rate 125 g/ha, under heading Pre-emergence, flood test species, visual evaluation after twelve to sixteen days
# [11] = Rate 250 g/ha, Pre-emergence (flood test species), scale 0 to 10, 0 is no effect, 10 is complete control
# [12] = Rate 500 g/ha, Pre-emergence section of Table B, 0 to 10 scale (0 no effect, 10 complete control)
smiles,measurement,setting,value
COC(=O)C(C)n1c(=O)on(C(=O)N(c2ccc(F)cc2)C(C)C)c1=O (centres unmarked) [Compound 616],"Plant response rating, Bedstraw",bedstraw; [1],0
same,Bedstraw plant response rating,bedstraw; [2],0
same,Bedstraw plant response rating,bedstraw; [3],0
same,"Plant response rating, Bedstraw",bedstraw; [4],0
same,Bedstraw plant response rating,bedstraw; [5],0
same,"Plant response rating, Bedstraw",bedstraw; [6],4
same,"Plant response rating, Blackgrass",blackgrass; [1],0
same,Blackgrass plant response rating,blackgrass; [2],0
same,"Plant response rating, Blackgrass",blackgrass; [7],5
same,Blackgrass plant response rating,blackgrass; [3],0
same,"Plant response rating, Blackgrass",blackgrass; [4],4
same,Blackgrass plant response rating,blackgrass; [5],6
same,"Plant response rating, Blackgrass",blackgrass; [6],8
same,"Plant response rating, B. signalgrass",surinam grass; [1],0
same,B. signalgrass plant response rating,surinam grass; [2],1
same,"Plant response rating, B. signalgrass",surinam grass; [7],4
same,B. signalgrass plant response rating,surinam grass; [8],5
same,B. signalgrass plant response rating,surinam grass; [3],0
same,"Plant response rating, B. signalgrass",surinam grass; [4],0
same,B. signalgrass plant response rating,surinam grass; [5],1
same,"Plant response rating, B. signalgrass",surinam grass; [6],6
same,"Plant response rating, Corn",corn; [1],0
same,Corn plant response rating,corn; [2],0
same,"Plant response rating, Corn",corn; [7],0
same,Corn plant response rating,corn; [8],0
same,Corn plant response rating,corn; [3],0
same,"Plant response rating, Corn",corn; [4],0
same,"Plant response rating, Corn",corn; [5],0
same,"Plant response rating, Corn",corn; [6],2
same,"Plant response rating, Crabgrass",crabgrass; [1],2
same,Crabgrass plant response rating,crabgrass; [2],4
same,"Plant response rating, Crabgrass",crabgrass; [7],7
same,Crabgrass plant response rating,crabgrass; [8],8
same,Crabgrass plant response rating,crabgrass; [3],0
same,"Plant response rating, Crabgrass",crabgrass; [4],0
same,"Plant response rating, Crabgrass",crabgrass; [5],1
same,"Plant response rating, Crabgrass",crabgrass; [6],6
same,"Plant response rating, Giant foxtail",giant foxtail; [1],3
same,Giant foxtail plant response rating,giant foxtail; [2],3
same,"Plant response rating, Giant foxtail",giant foxtail; [7],6
same,Giant foxtail plant response rating,giant foxtail; [8],7
same,Giant foxtail plant response rating,giant foxtail; [3],1
same,"Plant response rating, Giant foxtail",giant foxtail; [4],7
same,"Plant response rating, Giant foxtail",giant foxtail; [5],5
same,"Plant response rating, Giant foxtail",giant foxtail; [6],9
same,"Plant response rating, Morningglory",morningglory; [1],0
same,Morningglory plant response rating,morningglory; [2],4
same,"Plant response rating, Morningglory",morningglory; [7],10
same,Morningglory plant response rating,morningglory; [8],10
same,Morningglory plant response rating,morningglory; [3],0
same,"Plant response rating, Morningglory",morningglory; [4],0
same,"Plant response rating, Morningglory",morningglory; [5],0
same,"Plant response rating, Morningglory",morningglory; [6],0
same,"Plant response rating, Redroot pigweed",pigweed; [1],0
same,Redroot pigweed plant response rating,pigweed; [2],0
same,"Plant response rating, Redroot pigweed",pigweed; [7],1
same,Redroot pigweed plant response rating,pigweed; [8],3
same,Redroot pigweed plant response rating,pigweed; [3],1
same,"Plant response rating, Redroot pigweed",pigweed; [4],8
same,"Plant response rating, Redroot pigweed",pigweed; [5],10
same,"Plant response rating, Redroot pigweed",pigweed; [6],10
same,"Plant response rating, Rape",rape; [1],0
same,Rape plant response rating,rape; [2],0
same,"Plant response rating, Rape",rape; [7],0
same,Rape plant response rating,rape; [8],3
same,Rape plant response rating,rape; [3],0
same,"Plant response rating, Rape",rape; [4],0
same,"Plant response rating, Rape",rape; [5],3
same,"Plant response rating, Rape",rape; [6],6
same,Soybean plant response rating,soybean; [2],4
same,"Plant response rating, Soybean",soybean; [7],4
same,Soybean plant response rating,soybean; [8],4
same,Soybean plant response rating,soybean; [3],0
same,"Plant response rating, Soybean",soybean; [4],0
same,"Plant response rating, Soybean",soybean; [5],0
same,"Plant response rating, Soybean",soybean; [6],5
same,"Plant response rating, Velvetleaf",velvetleaf; [1],0
same,Velvetleaf plant response rating,velvetleaf; [2],0
same,"Plant response rating, Velvetleaf",velvetleaf; [7],1
same,Velvetleaf plant response rating,velvetleaf; [8],1
same,Velvetleaf plant response rating,velvetleaf; [3],0
same,"Plant response rating, Velvetleaf",velvetleaf; [4],0
same,"Plant response rating, Velvetleaf",velvetleaf; [5],4
same,"Plant response rating, Velvetleaf",velvetleaf; [6],5
same,"Plant response rating, Wheat",wheat; [1],0
same,Wheat plant response rating,wheat; [2],0
same,"Plant response rating, Wheat",wheat; [7],0
same,Wheat plant response rating,wheat; [8],0
same,Wheat plant response rating,wheat; [3],0
same,"Plant response rating, Wheat",wheat; [4],0
same,"Plant response rating, Wheat",wheat; [5],0
same,"Plant response rating, Wheat",wheat; [6],0
same,"Plant response rating, Wild oats",wild oat; [1],0
same,Wild oats plant response rating,wild oat; [2],0
same,"Plant response rating, Wild oats",wild oat; [7],0
same,Wild oats plant response rating,wild oat; [3],0
same,"Plant response rating, Wild oats",wild oat; [4],0
same,"Plant response rating, Wild oats",wild oat; [5],2
same,"Plant response rating, Wild oats",wild oat; [6],10
same,"Plant response rating, Nutsedge",purple nutsedge; [1],0
same,Nutsedge plant response rating,purple nutsedge; [2],0
same,"Plant response rating, Nutsedge",purple nutsedge; [7],0
same,"Plant response rating, Nutsedge",purple nutsedge; [4],0
same,"Plant response rating, Nutsedge",purple nutsedge; [5],0
same,"Plant response rating, Nutsedge",purple nutsedge; [6],0
same,Rice plant response rating,rice; [9],0
same,"Rice plant response rating (0 to 10 scale, 0 is no effect, 10 is complete control)",rice; [10],0
same,Rice plant response rating,rice; [11],0
same,Rice plant response rating,rice; [12],0
same,Ducksalad plant response rating,duck salad; [9],0
same,"Ducksalad plant response rating (0 to 10 scale, 0 is no effect, 10 is complete control)",duck salad; [10],0
same,Ducksalad plant response rating,duck salad; [11],0
same,Ducksalad plant response rating,duck salad; [12],0
